According to ChEMBL document CHEMBL5113373, “Tryptophan derived natural marine alkaloids and synthetic derivatives as promising antimicrobial agents” (Eur J Med Chem, 2021):
Values after ≈ are worked out from the molar mass of the structure shown.

Columns and labels:
[1] = tested on: Trichophyton mentagrophytes; assay: Antifungal activity against Trichophyton mentagrophytes assessed as fungal growth inhibition; assay type: functional, organism-based
[2] = tested on: Aspergillus niger; assay: Antifungal activity against Aspergillus niger assessed as fungal growth inhibition; assay type: functional, organism-based
[3] = tested on: Candida albicans; assay: Antifungal activity against Candida albicans assessed as fungal growth inhibition; assay type: functional, organism-based
[4] = tested on: Acinetobacter baumannii; assay: Antibiofilm activity against Acinetobacter baumannii ATCC 19606 assessed as inhibition of biofilm formation at 100 uM incubated for 24 hrs by crystal violet method relative to control; assay type: functional; design: scale not given: the % may be the effect or the level left
[5] = tested on: Mycobacterium tuberculosis; assay: Antibacterial activity against […] assessed as bacterial growth inhibition; assay type: functional
[6] = tested on: Staphylococcus aureus; assay: Antimicrobial activity against Staphylococcus aureus ATCC 25923 assessed as zone of inhibition incubated for 24 hrs by disc diffusion method; assay type: functional
[7] = tested on: Candida albicans; assay: Antimicrobial activity against Candida albicans ATCC 14053 assessed as zone of inhibition incubated for 24 hrs by disc diffusion method; assay type: functional
[8] = tested on: Micrococcus luteus; assay: Antibacterial activity against Micrococcus luteus assessed as bacterial growth inhibition; assay type: functional, organism-based
[9] = tested on: Mycolicibacterium phlei; assay: Antibacterial activity against Mycobacterium phlei assessed as bacterial growth inhibition; assay type: functional, organism-based
[10] = tested on: Saccharomyces cerevisiae; assay: Antifungal activity against Saccharomyces cerevisiae assessed as fungal growth inhibition; assay type: functional, organism-based
[11] = tested on: Escherichia coli; assay: Antibacterial activity against Escherichia coli assessed as bacterial growth inhibition by agar dilution method; assay type: functional
[12] = tested on: Klebsiella aerogenes; assay: Antibacterial activity against Enterobacter aerogenes assessed as bacterial growth inhibition by agar dilution method; assay type: functional
[13] = tested on: Enterococcus faecalis; assay: Antibiofilm activity against Vancomycin-resistant Enterococcus faecalis W1 assessed as inhibition of biofilm formation measured after 24 to 48 hrs by MTT assay; assay type: functional; conditions: time 24-48 hrs
[14] = tested on: Staphylococcus aureus; assay: Antibiofilm activity against Methicillin-resistant Staphylococcus aureus B1 assessed as inhibition of biofilm formation measured after 24 to 48 hrs by MTT assay; assay type: functional; conditions: time 24-48 hrs
[15] = tested on: Hepatitis C virus; assay: Antiviral activity against HCV J8CC infected in human Huh7.5 cells assessed as viral growth inhibition incubated for 48 hrs by light microscopy; assay type: functional, organism-based, Hepacivirus hominis; conditions: Huh7.5, 48 h
[16] = tested on: Pyricularia oryzae; assay: Antifungal activity against Pyricularia oryzae assessed as fungal growth inhibition incubated for 16 hrs by inverted microscopy; assay type: functional
[17] = tested on: Staphylococcus aureus; assay: Antibacterial activity against Staphylococcus aureus ATCC 6538 assessed as bacterial growth inhibition incubated for 24 hrs by agar diffusion method; assay type: functional
[18] = tested on: Candida albicans; assay: Antifungal activity against Candida albicans ATCC 2091 assessed as fungal growth inhibition incubated for 24 hrs by agar diffusion method; assay type: functional
[19] = tested on: Pseudomonas aeruginosa; assay: Antibacterial activity against Pseudomonas aeruginosa ATCC 9027 assessed as bacterial growth inhibition incubated for 24 hrs by agar diffusion method; assay type: functional
[20] = tested on: Staphylococcus aureus; assay: Antibacterial activity against Staphylococcus aureus assessed as bacterial growth inhibition; assay type: functional, organism-based
[21] = tested on: Candida albicans; assay: Antimicrobial activity against Candida albicans assessed as microbial growth inhibition measured after 24 hrs by agar dilution method; assay type: functional
[22] = tested on: Cryptococcus neoformans; assay: Antifungal activity against Cryptococcus neoformans assessed as fungal growth inhibition; assay type: functional, organism-based
[23] = tested on: Bacillus subtilis; assay: Antibacterial activity against Bacillus subtilis assessed as bacterial growth inhibition; assay type: functional, organism-based
[24] = tested on: Vibrio natriegens; assay: Antimicrobial activity against Vibrio natriegens ATCC 14048 assessed as inhibition of bacterial adhesion incubated for 48 hrs by crystal staining method; assay type: functional
[25] = tested on: Vibrio natriegens; assay: Antimicrobial activity against Vibrio natriegens ATCC 14048 assessed as microbial growth inhibition incubated for 48 hrs by spectrophotometry; assay type: functional
[26] = tested on: Staphylococcus aureus; assay: Antibacterial activity against Staphylococcus aureus ATCC 16339 assessed as bacterial growth inhibition incubated for 24 hrs by broth micro dilution method; assay type: functional
[27] = tested on: Acinetobacter baumannii; assay: Antibacterial activity against Acinetobacter baumannii ATCC 15122 assessed as bacterial growth inhibition incubated for 24 hrs by broth micro dilution method; assay type: functional
[28] = tested on: Acinetobacter baumannii; assay: Antibacterial activity against Acinetobacter baumannii ATCC 19606 assessed as bacterial growth inhibition incubated for 24 hrs by broth micro dilution method; assay type: functional
[29] = tested on: Klebsiella pneumoniae; assay: Antibacterial activity against Klebsiella pneumoniae ATCC 14578 assessed as bacterial growth inhibition incubated for 24 hrs by broth micro dilution method; assay type: functional
[30] = tested on: Fusarium oxysporum; assay: Antifungal activity against Fusarium oxysporum Momordicae assessed as fungal growth inhibition incubated for 3 days by broth micro dilution method; assay type: functional; conditions: 72 h, time 3 day

O=C(c1c[nH]c2ccc(O)cc12)[C@H](O)[C@@H](O)C(=O)c1c[nH]c2ccc(O)cc12
IC50 [1]: 42.1 µM
IC50 [2]: 21 µM

Brc1ccc2c(-c3c[nH]c(-c4c[nH]c5ccccc45)n3)c[nH]c2c1 [NORTOPSENTIN C]
IC50 [3]: 6.8 µM

C=CC(C)(C)[C@@]12CCN(C)C1=Nc1cc(Br)ccc12 [FLUSTRAMINE C]
Activity [4]: 30%

O=C1N[C@@H](Cc2c[nH]c3ccccc23)C(=O)N2CCC[C@@H]12 [BREVIANAMIDE F]
MIC [5]: 44.1 µM (≈ 12.5 µg/mL)
diameter of the inhibition zone (DIZ) [6]: 19 mm
diameter of the inhibition zone (DIZ) [7]: 25 mm

C=CC(C)(C)c1c(CCNC)c2ccc(Br)cc2n1CC=C(C)C
IC50 [8]: 5.9 µM
IC50 [9]: 7.7 µM
IC50 [10]: 17.9 µM

CC(C)[C@H]1NC(=O)[C@@H]2CC3(C45C[C@H]6C(=O)N[C@H](C(C)C)C(=O)N6[C@H]4Nc4ccccc45)c4ccccc4N[C@@H]3N2C1=O (stereo partly drawn)
MIC [11]: 44 µM (≈ 25 µg/mL)
MIC [12]: 44 µM (≈ 25 µg/mL)

CC(C)[C@@H]1NC(=O)[C@@H](C[C@]2(O)c3ccccc3N3C(=O)[C@@H](C)N[C@H]32)n2c1nc1ccccc1c2=O
BIC [13]: 168.9 µM
BIC [14]: 202.7 µM

CC(C)[C@@H]1NC(=O)[C@@H](C[C@@]2(O)c3ccccc3N3C(=O)C(C)(C)N[C@@H]32)n2c1nc1ccccc1c2=O
EC50 [15]: 129 µM

Cn1c[n+](C)c(C(=O)c2nc(C(=O)O)cc3c2[nH]c2ccc(O)cc23)c1[S+](C)[O-] (stereo not drawn)
IC50 [3]: 4.8 µM

CC(C)=CCn1cc(CC2NC(=O)C(C(C)C)NC2=O)c2ccccc21 (stereo not drawn)
MIC [16]: 0.36 µM (≈ 0.127 µg/mL)

CC1(C)C(=O)N2c3ccccc3[C@@]3(C[C@H]4n5c(nc6ccccc6c5=O)C(=O)C(C)(C)[C@@]4(O)O3)[C@@H]2N1S(C)(=O)=O
EC50 [15]: 110 µM

C=CC(C)(C)c1c(CCNC)c2ccccc2n1CC=C(C)C
IC50 [8]: 22.6 µM
IC50 [9]: 7.7 µM

O=C(O)c1c(-c2c[nH]c3cc(O)ccc23)ncc2[nH]c3ccc(O)cc3c12
diameter of the inhibition zone (DIZ) [17]: 10 mm
diameter of the inhibition zone (DIZ) [18]: 9 mm
diameter of the inhibition zone (DIZ) [19]: 7 mm

Brc1ccc2c(-c3nc(-c4c[nH]c5ccccc45)c[nH]3)c[nH]c2c1 [NORTOPSENTIN B]
IC50 [3]: 6.8 µM

C[C@@H]1NC(=O)[C@@H](Cc2c[nH]c3ccccc23)n2c1nc1ccccc1c2=O [FUMIQUINAZOLINE F]
MIC [8]: 276 µM (≈ 99 µg/mL)
MIC [20]: 382 µM (≈ 137 µg/mL)

O=C1N[C@H]2c3nc4ccccc4c(=O)n3[C@H]1C[C@@]1(O)c3ccccc3N3C(=O)C4(CC4)N2[C@@H]31
MIC [21]: 22.6 µM (≈ 9.98 µg/mL)

C[N+](C)(C)CC(c1c[nH]c2cc(Br)ccc12)c1c2ccnc3c2c(c2nc(CS(=O)(=O)[O-])oc12)NC=C3 (stereo not drawn)
MIC [2]: 27.5 µM (≈ 16 µg/mL)

CC(C)CC(=O)Nc1c(O)c(C(C[N+](C)(C)C)c2c[nH]c3cc(Br)ccc23)c2ccnc3c2c1NC=C3 (stereo not drawn)
IC50 [3]: 14.2 µM

C[N+](C)(C)CC(c1c[nH]c2cc(Br)ccc12)c1c(O)c(O)c2c3c(nccc13)C=CN2 (stereo not drawn)
IC50 [8]: 4.2 µM
IC50 [1]: 0.5 µM
IC50 [22]: 0.5 µM
IC50 [23]: 4.2 µM
IC50 [20]: 4.2 µM
IC50 [3]: 0.5 µM

C=CC(C)(C)c1[nH]c2ccccc2c1/C=c1\[nH]c(=O)c2n(c1=O)CCC=2C1=c2c(=O)[nH]/c(=C\c3c(C(C)(C)C=C)[nH]c4ccccc34)c(=O)n2CC1
MIC [5]: 9 µM (≈ 6.24 µg/mL)

C/N=C1\NC(Cc2c[nH]c3cc(Br)ccc23)C(=O)N1C (stereo not drawn)
MIC [24]: 298 µM (≈ 100 µg/mL)
MIC [25]: 0.03 µM (≈ 0.0101 µg/mL)

O=C(O)[C@@H]1Cc2c[nH]c3ccc4oc5nc6ccc(O)cc6c-5c(c4c23)N1
IC50 [22]: 11.1 µM
IC50 [3]: 2.8 µM

O=C1N[C@]2(CO)c3[nH]c4ccccc4c3C[C@@H]1n1c2nc2ccccc2c1=O
MIC [26]: 16.8 µM (≈ 6.26 µg/mL)
MIC [27]: 16.8 µM (≈ 6.26 µg/mL)
MIC [28]: 16.8 µM (≈ 6.26 µg/mL)
MIC [29]: 16.8 µM (≈ 6.26 µg/mL)
MIC [30]: 4 µM (≈ 1.49 µg/mL)

NC(=O)c1c(-c2c[nH]c3cc(O)ccc23)ncc2[nH]c3ccc(O)cc3c12
diameter of the inhibition zone (DIZ) [17]: 10 mm
diameter of the inhibition zone (DIZ) [18]: 9 mm
diameter of the inhibition zone (DIZ) [19]: 7 mm
